From BindingDB's records for doi:10.1016/j.bmc.2010.08.049 (University of Wisconsin-Milwaukee, 2010) come the findings set out here.

SMILES strings stand for the structures.

The target in test [1] is GABA A receptor alpha-4/beta-3/gamma-2 (Homo sapiens, UniProt P48169+P18507+P28472). In words: Displacement of [3H]flunitrazepam from human recombinant GABAA alpha-4-beta-3-gamma-2 receptor expressed in HEK cells by liquid scintillation counting. (Loss of bound radioactivity is the signal in a displacement assay; it reports binding, not function.)
Chain of GABA A receptor alpha-4/beta-3/gamma-2 (P48169 whole entry, one chain of several): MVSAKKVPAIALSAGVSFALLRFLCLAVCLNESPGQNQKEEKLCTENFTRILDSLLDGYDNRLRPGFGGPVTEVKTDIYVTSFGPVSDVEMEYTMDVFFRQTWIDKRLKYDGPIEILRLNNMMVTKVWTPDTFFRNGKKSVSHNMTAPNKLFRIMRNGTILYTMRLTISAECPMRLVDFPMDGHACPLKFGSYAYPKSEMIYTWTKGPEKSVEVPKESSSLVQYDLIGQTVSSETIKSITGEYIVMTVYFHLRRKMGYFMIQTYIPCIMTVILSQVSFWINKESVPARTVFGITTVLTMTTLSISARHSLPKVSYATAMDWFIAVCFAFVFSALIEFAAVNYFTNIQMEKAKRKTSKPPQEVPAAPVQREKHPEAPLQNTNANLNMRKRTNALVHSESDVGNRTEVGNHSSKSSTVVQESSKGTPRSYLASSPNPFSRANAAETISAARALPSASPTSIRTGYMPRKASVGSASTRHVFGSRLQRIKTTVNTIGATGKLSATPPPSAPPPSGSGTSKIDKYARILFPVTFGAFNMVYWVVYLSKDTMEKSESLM
In test [2] the target is Gamma-aminobutyric acid receptor subunit alpha-6/beta-3/gamma-2 (Homo sapiens, UniProt Q16445+P18507+P28472). Description: Displacement of [3H]flunitrazepam from human recombinant GABAA alpha-6-beta-3-gamma-2 receptor expressed in HEK cells by liquid scintillation counting.
Chain of Gamma-aminobutyric acid receptor subunit alpha-6/beta-3/gamma-2 (Q16445 whole entry, one chain of several): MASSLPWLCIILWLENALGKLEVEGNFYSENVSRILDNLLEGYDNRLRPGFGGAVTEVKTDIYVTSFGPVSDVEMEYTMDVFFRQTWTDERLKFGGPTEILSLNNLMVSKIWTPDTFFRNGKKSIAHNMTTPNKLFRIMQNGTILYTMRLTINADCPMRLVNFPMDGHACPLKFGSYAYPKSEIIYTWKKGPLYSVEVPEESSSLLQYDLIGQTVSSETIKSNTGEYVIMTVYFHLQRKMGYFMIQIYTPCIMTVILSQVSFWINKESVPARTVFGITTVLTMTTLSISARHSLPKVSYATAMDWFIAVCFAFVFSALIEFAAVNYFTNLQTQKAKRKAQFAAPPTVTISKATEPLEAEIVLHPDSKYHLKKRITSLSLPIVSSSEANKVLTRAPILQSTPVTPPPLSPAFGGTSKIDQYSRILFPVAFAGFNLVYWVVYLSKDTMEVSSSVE
Test [3] concerns the target T1, GABA-A receptor; alpha-5/beta-3/gamma-2 (Homo sapiens, UniProt P31644+P18507+P28472).
T1 sequence (P31644 whole entry): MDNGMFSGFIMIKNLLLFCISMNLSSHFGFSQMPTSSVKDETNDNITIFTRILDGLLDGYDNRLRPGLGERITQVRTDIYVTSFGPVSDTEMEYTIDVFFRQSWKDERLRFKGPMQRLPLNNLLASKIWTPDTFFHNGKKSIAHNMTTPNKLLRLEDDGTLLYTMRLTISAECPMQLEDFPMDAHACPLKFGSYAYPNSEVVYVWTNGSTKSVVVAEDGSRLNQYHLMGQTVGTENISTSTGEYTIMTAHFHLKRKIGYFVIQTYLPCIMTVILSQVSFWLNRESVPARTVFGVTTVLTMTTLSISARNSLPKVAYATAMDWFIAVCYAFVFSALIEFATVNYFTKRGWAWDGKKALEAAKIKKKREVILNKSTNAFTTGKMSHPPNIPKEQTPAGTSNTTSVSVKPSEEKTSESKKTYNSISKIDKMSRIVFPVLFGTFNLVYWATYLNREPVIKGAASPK
T1 sequence (P18507 whole entry): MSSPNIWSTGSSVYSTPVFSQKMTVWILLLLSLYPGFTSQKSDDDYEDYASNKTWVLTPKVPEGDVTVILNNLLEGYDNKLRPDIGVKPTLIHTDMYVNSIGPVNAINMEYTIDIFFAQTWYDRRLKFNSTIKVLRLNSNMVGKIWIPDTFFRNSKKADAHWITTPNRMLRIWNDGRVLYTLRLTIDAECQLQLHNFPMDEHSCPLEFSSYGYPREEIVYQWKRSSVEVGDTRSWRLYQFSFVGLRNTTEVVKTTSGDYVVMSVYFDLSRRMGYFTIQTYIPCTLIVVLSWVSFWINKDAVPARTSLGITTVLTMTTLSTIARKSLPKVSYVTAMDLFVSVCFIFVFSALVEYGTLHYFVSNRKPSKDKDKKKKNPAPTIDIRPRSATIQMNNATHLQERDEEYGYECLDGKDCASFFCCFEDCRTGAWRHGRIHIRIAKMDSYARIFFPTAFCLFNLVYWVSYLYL
T1 sequence (P28472 whole entry): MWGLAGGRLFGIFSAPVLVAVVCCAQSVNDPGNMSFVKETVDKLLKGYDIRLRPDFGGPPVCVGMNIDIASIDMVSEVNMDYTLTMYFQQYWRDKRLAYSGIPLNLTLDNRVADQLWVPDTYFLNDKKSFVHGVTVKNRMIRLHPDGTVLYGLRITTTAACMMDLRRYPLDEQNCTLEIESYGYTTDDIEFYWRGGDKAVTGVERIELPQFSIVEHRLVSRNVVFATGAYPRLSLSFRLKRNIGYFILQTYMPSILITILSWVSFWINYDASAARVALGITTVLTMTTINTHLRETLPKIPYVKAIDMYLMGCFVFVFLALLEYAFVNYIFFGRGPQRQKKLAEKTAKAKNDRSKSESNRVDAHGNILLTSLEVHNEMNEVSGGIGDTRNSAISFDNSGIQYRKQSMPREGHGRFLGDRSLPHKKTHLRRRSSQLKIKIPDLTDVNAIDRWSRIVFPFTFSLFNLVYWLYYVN
Description: Displacement of [3H]flunitrazepam from human recombinant GABAA alpha-5-beta-3-gamma-2 receptor expressed in HEK cells by liquid scintillation counting.

For test [4], the target named is T2, GABA-A receptor; alpha-2/beta-3/gamma-2 (Homo sapiens, UniProt P47869+P18507+P28472).
T2 sequence (P47869 whole entry): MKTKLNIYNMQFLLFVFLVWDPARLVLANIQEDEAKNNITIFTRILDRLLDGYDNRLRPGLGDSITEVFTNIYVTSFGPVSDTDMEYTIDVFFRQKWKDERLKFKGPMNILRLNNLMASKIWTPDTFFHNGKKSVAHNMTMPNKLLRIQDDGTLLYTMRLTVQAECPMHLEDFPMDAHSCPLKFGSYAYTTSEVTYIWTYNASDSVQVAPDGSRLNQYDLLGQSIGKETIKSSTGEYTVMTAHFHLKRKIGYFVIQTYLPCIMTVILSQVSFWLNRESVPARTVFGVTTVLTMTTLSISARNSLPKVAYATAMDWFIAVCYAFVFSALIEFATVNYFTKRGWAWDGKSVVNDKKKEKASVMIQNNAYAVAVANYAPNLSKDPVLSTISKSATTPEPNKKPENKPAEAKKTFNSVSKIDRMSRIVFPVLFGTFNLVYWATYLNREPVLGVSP
T2 sequence (P18507 whole entry): T1 sequence (P18507 whole entry)
T2 sequence (P28472 whole entry): T1 sequence (P28472 whole entry)
Description: Displacement of [3H]flunitrazepam from human recombinant GABAA alpha-2-beta-3-gamma-2 receptor expressed in HEK cells by liquid scintillation counting.

The target in test [5] is T3, Gamma-aminobutyric acid receptor subunit alpha-3/beta-3/gamma-2 (Homo sapiens, UniProt P34903+P18507+P28472).
T3 sequence (P34903 whole entry): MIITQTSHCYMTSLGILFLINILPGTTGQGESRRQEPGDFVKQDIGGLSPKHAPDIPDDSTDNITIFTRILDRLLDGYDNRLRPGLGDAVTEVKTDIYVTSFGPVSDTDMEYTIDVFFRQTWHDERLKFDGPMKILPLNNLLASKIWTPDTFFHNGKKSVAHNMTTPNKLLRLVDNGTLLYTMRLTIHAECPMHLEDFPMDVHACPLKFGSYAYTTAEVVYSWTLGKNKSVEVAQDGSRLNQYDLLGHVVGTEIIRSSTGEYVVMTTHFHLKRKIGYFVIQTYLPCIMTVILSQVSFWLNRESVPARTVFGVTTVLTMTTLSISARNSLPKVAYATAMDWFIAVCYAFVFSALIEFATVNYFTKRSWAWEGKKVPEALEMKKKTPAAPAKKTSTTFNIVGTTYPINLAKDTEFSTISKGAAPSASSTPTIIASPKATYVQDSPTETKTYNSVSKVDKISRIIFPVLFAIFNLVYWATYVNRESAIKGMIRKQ
T3 sequence (P18507 whole entry): T1 sequence (P18507 whole entry)
T3 sequence (P28472 whole entry): T1 sequence (P28472 whole entry)
Description: Displacement of [3H]flunitrazepam from human recombinant GABAA alpha-3-beta-3-gamma-2 receptor expressed in HEK cells by liquid scintillation counting.

With `O=C(Oc1cc(F)c(F)cc1F)c1cc2c(cn1)[nH]c1ccccc12` [2,4,5-trifluorophenyl 9H-pyrido[3,4-b]indole-3-carboxylate], the Ki in test [1] and in test [2] was 3000 nM in each case.
`CC(C)(C)OC(=O)c1cc2c(cn1)[nH]c1ccccc12`: the Ki in test [1] came out at 1000 nM.
As to `CCCOc1cc2c(cn1)[nH]c1ccccc12` [3-propoxy-9H-pyrido[3,4-b]indole], in test [1], the Ki turned out to be 1000 nM.
`O=C(OCC(F)(F)F)c1cc2c(cn1)[nH]c1ccc(-c3cccs3)cc12` [2,2,2-trifluoroethyl 6-(thiophen-2-yl)-9H-pyrido[3,4-b]indole-3-carboxylate]: the Ki in test [1] and in test [2] was 2000 nM throughout.
For the compound `CCOC(=O)c1cc2c(cn1)[nH]c1ccc(C#C[Si](C)(C)C)cc12` [ethyl 6-((trimethylsilyl)ethynyl)-9H-pyrido[3,4-b]indole-3-carboxylate], the Ki in test [1] and in test [2] was 2000 nM in each case.
In the case of `CC(C)(C)OC(=O)c1cc2c(cn1)[nH]c1ccc(C(C)(C)C)cc12` [tert-butyl 6-tert-butyl-9H-pyrido[3,4-b]indole-3-carboxylate], the Ki in test [1] and in test [2] was 1000 nM each time.
For `CC(C)(C)OC(=O)c1cc2c(cn1)[nH]c1ccc(-c3cccs3)cc12` [tert-butyl 6-(thiophen-2-yl)-9H-pyrido[3,4-b]indole-3-carboxylate], the Ki in test [2] came to 5000 nM.
Consider `CC(C)(C)OC(=O)c1cc2c(cn1)[nH]c1ccc(F)cc12` [tert-butyl 6-fluoro-9H-pyrido[3,4-b]indole-3-carboxylate], for which the inhibition constant Ki in test [1] and in test [2] was 1000 nM throughout.
On to `O=C(OCC(F)(F)F)c1cc2c(cn1)[nH]c1ccc(-c3ccccc3)cc12` [2,2,2-trifluoroethyl 6-phenyl-9H-pyrido[3,4-b]indole-3-carboxylate], for which the Ki in test [1] and in test [2] was 2000 nM throughout.
On to `C#Cc1ccc2c(c1)c1cc(C(=O)OC(C)(C)C)ncc1n2C(=O)OC(C)(C)C` [di-tert-butyl 6-ethynyl-9H-pyrido[3,4-b]indole-3,9-dicarboxylate], for which the inhibitory constant (Ki) in test [3] and in test [2] was 5000 nM in each case.
As to `O=C(OC(C(F)(F)F)C(F)(F)F)c1cc2c(cn1)[nH]c1ccc(I)cc12` [1,1,1,3,3,3-hexafluoropropan-2-yl 6-iodo-9H-pyrido[3,4-b]indole-3-carboxylate], the Ki in test [1] and in test [2] was 3000 nM throughout.
As for `CC(C)(C)OC(=O)c1cc2c(cn1)[nH]c1ccc(C#CC#Cc3ccc4[nH]c5cnc(C(=O)OC(C)(C)C)cc5c4c3)cc12` [1,4-Bis(9H-beta-carboline-3-carboxylic acid tert-butyl ester)buta-1,3-diyne], the Ki in test [1], in test [3] and in test [2] was 5000 nM in each case.
Consider `CC(C)COc1cc2c3ccccc3nc-2c[nH]1`, for which, in test [2], the Ki was found to be 10000 nM.
With `CCOC(=O)c1cc2c(cn1)[nH]c1ccc(I)cc12` [ethyl 6-iodo-9H-pyrido[3,4-b]indole-3-carboxylate], the Ki in test [1] and in test [2] was 1000 nM each time.
In the case of `CC(C)(C)OC(=O)c1cc2c(cn1)[nH]c1ccc(C#C[Si](C)(C)C)cc12` [6-Trimethylsilanylethynyl-9H-beta-carboline-3-carboxylic acid t-butyl ester], in test [2], the Ki amounted to 1000 nM.
`O=C(OCC(F)(F)F)c1cc2c(cn1)[nH]c1ccc(-c3ccco3)cc12` [2,2,2-trifluoroethyl 6-(furan-2-yl)-9H-pyrido[3,4-b]indole-3-carboxylate]: the Ki in test [1] was 3000 nM; in test [2] it was 2000 nM.
Turning to `CC(C)(C)OC(=O)c1cc2c(cn1)[nH]c1ccc(-c3ccccc3)cc12` [tert-butyl 6-phenyl-9H-pyrido[3,4-b]indole-3-carboxylate], in test [2], the Ki is 5000 nM.
`CCOc1cc2c(cn1)[nH]c1ccccc12` [3-ethoxy-9H-pyrido[3,4-b]indole]: in test [2], the Ki was 1000 nM.
Turning to `O=C(OCC(Cl)(Cl)Cl)c1cc2c(cn1)[nH]c1ccccc12` [2,2,2-trichloroethyl 9H-pyrido[3,4-b]indole-3-carboxylate], the Ki in test [1] was 1000 nM; in test [2], 2000 nM.
Consider `c1ccc(COc2cc3c4ccccc4nc-3c[nH]2)cc1`, for which the Ki came to 10000 nM in test [3], 10000 nM in test [2], 3000 nM in test [4] and 3000 nM in test [5].
On to `O=C(OC(C(F)(F)F)C(F)(F)F)c1cc2c(cn1)[nH]c1ccccc12` [1,1,1,3,3,3-hexafluoropropan-2-yl 9H-pyrido[3,4-b]indole-3-carboxylate], for which the figures for the Ki in test [1] and in test [2] were 1000 nM and 2000 nM, respectively.
With `CC/C=C/C=C/Oc1cc2c(cn1)[nH]c1ccccc12` [3-(hexa-1,3-dienyloxy)-9H-pyrido[3,4-b]indole], the inhibitory constant (Ki) in test [3] and in test [2] was 10000 nM throughout.
As to `O=C(OCC(F)(F)F)c1cc2c(cn1)[nH]c1ccc(I)cc12` [2,2,2-trifluoroethyl 6-iodo-9H-pyrido[3,4-b]indole-3-carboxylate], the Ki worked out at 2000 nM in test [1] and 3000 nM in test [2].
Regarding `CC(OC(=O)c1cc2c(cn1)[nH]c1ccccc12)c1ccccc1` (stereo not given) [1-phenylethyl 9H-pyrido[3,4-b]indole-3-carboxylate], the Ki was 1000 nM in test [1]; 1000 nM in test [3]; 3000 nM in test [2]; 1000 nM in test [4]; 1000 nM in test [5].
Consider `CC(C)(C)OC(=O)c1cc2c(cn1)[nH]c1ccc(-c3ccco3)cc12` [tert-butyl 6-(furan-2-yl)-9H-pyrido[3,4-b]indole-3-carboxylate], for which the Ki in test [2] was determined as 5000 nM.
Regarding `C#Cc1ccc2[nH]c3cnc(C(=O)OCC(F)(F)F)cc3c2c1` [2,2,2-trifluoroethyl 6-ethynyl-9H-pyrido[3,4-b]indole-3-carboxylate], the Ki in test [1] and in test [2] was 2000 nM throughout.

What is called Ki is a dissociation constant, usually derived from enzyme kinetics or from competition with a known ligand.
